Data taken from article PMC10423028 (FEMS Microbiology Letters, 2023).

Target: VFT^pp (periplasmic VFT domain of RmcA^pp) (Pseudomonas putida, UniProt Q88QU8)
Assay: biochemical

Sequence of VFT^pp (periplasmic VFT domain of RmcA^pp) (Q88QU8 21-265): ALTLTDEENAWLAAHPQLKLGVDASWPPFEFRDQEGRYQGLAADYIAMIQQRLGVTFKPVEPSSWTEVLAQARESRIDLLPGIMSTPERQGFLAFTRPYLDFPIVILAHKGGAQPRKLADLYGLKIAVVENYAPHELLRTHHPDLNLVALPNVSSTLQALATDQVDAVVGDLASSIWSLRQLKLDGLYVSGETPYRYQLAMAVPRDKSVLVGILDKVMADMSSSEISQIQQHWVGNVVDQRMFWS

Molecule N=C(N)NCCC[C@H](N)C(=O)O [L-arginine] has a Kd of 7.1 ± 2.2 µM.
